According to PMC8761492 (Life Science Alliance, 2022):
Like-named read-outs stand apart in the source and are kept apart here. Starred links: 1 amine or outer side, 2 acyl side, 3 side chain; linkers in the order of their positions; H or OH if unused. Positions of bridges follow the written chain, without caps; N, C: chain ends. Non-standard residues stand in square brackets, D forms with d. Residues, ends and D or L forms follow the SMILES beside them. *: point of attachment. X1 = CC[C@H](C)[C@@H](N[*:1])[C@@H](O)CC(=O)O[C@H](C(=O)[C@H](C)C(=O)[*:2])C(C)C; NMeY = CN[C@@H](Cc1ccc(O)cc1)C(=O)O; dNMeL = CN[C@H](CC(C)C)C(=O)O; Pyruvoyl = CC(=O)C(=O)*

Key:
[1] = system: SARS-CoV; type: cell-based; details: Vero E6 cells; 50 nM; 48 hpi
[2] = APLICOV-PC: safety, adverse events and laboratory abnormalities; type: in vivo, human
Method: The plitidepsin clinical proof-of-concept study (APLICOV-PC, APL-D-002-20; EudraCT #2020-001993-31; NCT04382066) was a multicenter, randomized, parallel, open-label, proof-of-concept clinical trial, exploring three dose levels of plitidepsin (1.5, 2.0, and 2.5 mg/day, flat doses) for 3 consecutive days, as a 90-min i.v. infusion, in adult patients with COVID-19 who required hospitalization. The study was conducted in 10 hospital centers in Spain between 12 May 2020 and 26 November 2020. Presented data reflect all analyses completed by the cut-off date of 10 December 2020. The research was performed in accordance with good clinical practice guidelines and adhered to the tenets of the Declaration of Helsinki. The study protocol is available in Supplemental Data 1. Supplemental Data 2 summarizes the protocol amendments as well as post hoc analyses that were performed.
Adult (aged ≥18 yr) hospitalized patients with a positive SARS-CoV-2 infection confirmed by real-time RT-PCR testing of a nasopharyngeal exudate or the lower respiratory tract were eligible for inclusion in this study. Despite the eligibility of patients with samples from the lower respiratory tract, all patients reported here had only nasopharyngeal swab samples. Included patients must have had the onset of SARS-CoV-2 infection symptoms no more than 10 d before initiating the study. […] Women and men with partners of childbearing potential agreed to take effective contraception while on study and for 6 mo after the last dose of plitidepsin. All included patients provided written informed consent before the initiation of the study.
Key exclusion criteria included participation in another COVID-19–related clinical trial; receiving antivirals, chloroquine or derivatives, IL-6 receptor inhibitors, or immunomodulatory drugs for treatment of COVID-19; or requiring mechanical ventilation support at enrollment. Patients were also excluded for evidence of multi-organ failure, clinically relevant heart disease, clinically relevant arrhythmia or history of QTc interval prolongation, or neuropathy ≥ grade 2. Full exclusion criteria can be found in Supplemental Data 1.
Randomization was done through registration in the study’s electronic case report form. The system assigned a unique randomization number for each patient. Patients were enrolled sequentially and allocated by block randomization into the three dose groups (1.5, 2.0, and 2.5 mg plitidepsin) up to an initial sample size of nine patients per group. To ensure safety, the first three patients in the 2.0 mg group could not be enrolled until the first three patients in the 1.5 mg cohort had successfully completed Day 15 assessments (12 d after completing plitidepsin dosing); similarly, the first three patients in the 2.5 mg cohort could be not enrolled until the first three patients in the 2.0 mg cohort had successfully completed Day 15 assessments (12 d after completing plitidepsin dosing). Finally, three patients had to be treated in the 2.5 mg cohort to complete the accrual of nine patients per cohort. When multiple dose levels were open for enrollment, patients were randomized 1:1 or 1:1:1 as appropriate (Fig 4). After an interim safety analysis, a protocol amendment was approved to subsequently expand the accrual up to 45 patients (six additional patients per dose group).
Enrolled patients received plitidepsin administered as an i.v. infusion over 90 min on days 1, 2, and 3 at dose levels of 1.5, 2.0, and 2.5 mg. A single batch (Lot 16D19) was administered to all patients. All patients also received, 20–30 min before the infusion of plitidepsin (i.e., on days 1–3), a premedication regimen consisting in: diphenhydramine 25 mg i.v., ranitidine 50 mg i.v., and dexamethasone 8 mg orally. […]

[3] = system: SARS-CoV-2; parameters: method as in PMID 33495306; details: in vivo; cited from earlier work
[4] = human, cited from earlier work
[5] = Post-amendment (n = 36), Grade 1
[6] = Post-amendment (n = 36), Grade 2
[7] = after the premedication amendment
[8] = before the premedication amendment

With `CC[C@H](C)[C@H]1NC(=O)[C@@H](NC(=O)[C@@H](CC(C)C)N(C)C(=O)[C@@H]2CCCN2C(=O)C(C)=O)[C@@H](C)OC(=O)[C@H](Cc2ccc(OC)cc2)N(C)C(=O)[C@@H]2CCCN2C(=O)[C@H](CC(C)C)NC(=O)[C@@H](C)C(=O)[C@H](C(C)C)OC(=O)C[C@@H]1O` [Plitidepsin] (Pyruvoyl-P[dNMeL]T[X1]LP[NMeY](Me); ester 3-C) the “decrease in SARS-CoV genomic RNA accumulation” value [1] was 10^4 fold, the “prevalence of grade 3–4 AEs” value ([2]; 1.5 mg cohort) was 33.3% and the “prevalence of grade 3–4 AEs” value ([2]; 2.0 mg cohort) was 20.0%. The “prevalence of grade 3–4 AEs” value ([2]; 2.5 mg cohort) was 40.0%, the “patients with Grade 1 increase in CPK” value ([2]; 3 of 37 with normal baseline values) was 8.1% and the “patients whose platelet counts normalized” value ([2]; 5 of 12 with Grade 1 thrombocytopenia at entry) was 41.7%. The patients with hyperglycemia ([2]; 8 of 45, none considered related to plitidepsin) was 18%, the “patients with elevation of AST” value ([2]; 13 of 44, regardless of causality) was 30% and the “patients with elevation of ALT” value ([2]; 29 of 44, regardless of causality) was 66%. For the same compound, the “hypersensitivity reactions after changes to premedication” value ([2]; 36 patients, 108 infusions) was “No new hypersensitivity reactions”, the “serious adverse event considered related to the study drug” value ([2]; Grade 3 hypersensitivity reaction, one event) was 2.2 % subjects and the Abdominal pain [2, 5] was 2 (5.6%) N (%). For the same compound, the Anorexia [2, 5] was 1 (2.8%) N (%), the Asthenia [2, 5] was 1 (2.8%) N (%) and the Chest discomfort [2, 5] was 1 (2.8%) N (%). For the same compound, the Diarrhea [2, 5] was 1 (2.8%) N (%), the Dizziness [2, 5] was 2 (5.6%) N (%) and the Dysgeusia [2, 5] was 2 (5.6%) N (%). The Dyspepsia [2, 5] was 2 (5.6%) N (%), the Dysthermia [2, 5] was 1 (2.8%) N (%) and the Nausea [2, 5] was 11 (30.6%) N (%). The Temperature regulation disorder [2, 5] was 1 (2.8%) N (%), the Vomiting [2, 5] was 3 (8.3%) N (%) and the Amylase increased [2, 6] was 1 (2.8%) N (%). For the same compound, the Asthenia [2, 6] was 1 (2.8%) N (%), the Decreased appetite [2, 6] was 1 (2.8%) N (%) and the Diarrhea [2, 6] was 1 (2.8%) N (%). For the same compound, the Lipase increased [2, 6] was 1 (2.8%) N (%), the Nausea [2, 6] was 3 (8.3%) N (%) and the Vomiting [2, 6] was 2 (5.6%) N (%). The Diarrhea ([2]; Post-amendment (n = 36), Grade 3) was 1 (2.8%) N (%), the Nausea ([2]; Pre-amendment (n = 9), Grade 1) was 3 (33.3%) N (%) and the Vomiting ([2]; Pre-amendment (n = 9), Grade 1) was 2 (22.2%) N (%). The Nausea ([2]; Pre-amendment (n = 9), Grade 2) was 2 (22.2%) N (%), the Anaphylactic reaction ([2]; Pre-amendment (n = 9), Grade 3) was 1 (11.1%) N (%) and the “proportion of patients with nausea” value [2, 7] was 38.9%. For the same compound, the “proportion of patients with vomiting” value [2, 7] was 13.9%, the “Grade 4 AEs” value ([2]; all doses) was “No Grade 4 AEs were reported” and the hemotoxicity ([2]; all doses) was “did not show signs of clinically relevant hemotoxicity”. For the same compound, the “patients with treatment related adverse events” value ([2]; all doses, 25 patients) was 55.5%, the “patients with one or more adverse events” value ([2]; all doses, 44 of 45) was 97.8% and the treatment-related abdominal pain ([2]; all doses, 45 treated patients) was 4.4%. For the same compound, the treatment-related diarrhea ([2]; all doses, 45 treated patients) was 6.7%, the treatment-related dizziness ([2]; all doses, 45 treated patients) was 4.4% and the treatment-related dysgeusia ([2]; all doses, 45 treated patients) was 4.4%. The treatment-related nausea ([2]; all doses, 45 treated patients) was 42.2%, the treatment-related vomiting ([2]; all doses, 45 treated patients) was 15.6% and the “patients with at least one Grade ≥ 3 AE regardless of causality” value ([2]; all doses, NCI-CTCAE v5) was 31%. For the same compound, the “number of Grade 3 AEs attributed to plitidepsin” value ([2]; anaphylactic reaction at 1.5 mg/day and diarrhea at 2.5 mg/day) was “Two”, the “proportion of patients with nausea” value [2, 8] was 55.6% and the “proportion of patients with vomiting” value [2, 8] was 22.2%. For the same compound, the “patients whose CPK values decreased on study” value ([2]; four of five with Grade 1–2 elevation at entry) was 80%, the “patients who died (COVID-19-related)” value ([2]; three of 45 treated patients, days 22, 30 and 57) was 6.7% and the “viral load in lungs” value [3] was “significant reduction in the viral load in lungs”. The half-life ([4]; plasma concentrations, non-compartmental analysis, ref study APL-B-015-14) was 48.1 h and the half-life ([4]; whole blood concentrations, ref pharmacokinetic population analysis) was 161 h.
